Test results published in US10813926B2, “Morphinan compounds” (Concert Pharmaceuticals, Inc., priority 2008, dated 2020).
Counter-ions that a name gives are not always drawn.

Columns and labels:
Human CYP2D6 SUPERSOMES = molecular target: T1, Human CYP2D6 SUPERSOMES (Homo sapiens, UniProt P10635); test: Metabolic stability in CYP2D6 SUPERSOMES; type: in vitro ADME; conditions: 50 pmol/mL CYP2D6 SUPERSOMES, 1 μM test compound, 2 mM NADPH, 37° C., 0-30 minutes, triplicate
T1 construct: purchased GenTest (Woburn, Mass., USA)
Experimental: (§1) Human CYP2D6 SUPERSOMES™ were purchased from GenTest (Woburn, Mass., USA). 7.5 mM stock solutions of test compounds (Compounds 100, 102, 104, 106, dextromethorphan, a deuterated analog of dextromethorphan wherein each methyl group was replaced with CD3 (“d6-dextromethorphan”, chemical name (+)-3-d3-methoxy-17-d3-methyl-(9α,13α,14α)-morphinan, also referred to as Compound 101 in U.S. Ser. No. 12/112,936, and as “Test Compound” in FIG. 1 and Table 2 below), the ethyl ether analog of dextromethorphan (“dextroethorphan”) or the isopropyl ether analog of dextromethorphan (“dextroisoproporphan”)) were prepared in DMSO. The 7.5 mM stock solutions were diluted to 50 μM in acetonitrile (ACN). The 1000 pmol/mL CYP2D6 supersomes were diluted to 62.5 pmol/mL in 0.1 M potassium phosphate buffer, pH 7.4, containing 3 mM MgCl2. The diluted SUPERSOMES™ were added to wells of a 96-well deep-well polypropylene plate in triplicate. 10 μL of the 50 μM test compound was added to the supersomes and the mixture was pre-warmed for 10 minutes. Reactions were initiated by addition of pre-warmed NADPH solution. The final reaction volume was 0.5 mL and contained 50 pmol/mL CYP2D6 SUPERSOMES™, 1 μM test compound, and 2 mM NADPH in 0.1 M potassium phosphate buffer, pH 7.4, and 3 mM MgCl2. The reaction mixtures were incubated at 37° C. and 50 μL aliquots were removed at 0, 5, 10, 20, and 30 minutes and added to shallow-well 96-well plates which contained 50 μL of ice-cold ACN with internal standard to stop the reactions. The plates were stored at 4° C. for 20 minutes after which 100 μL of water was added to the wells of the plate before centrifugation to pellet precipitated proteins. Supernatants were transferred to another 96-well plate and analyzed for amounts of parent remaining by LC-MS/MS using an Applied Bio-systems API 4000 mass spectrometer.
(§2) The in vitro half-life (t1/2) for each of the test compounds was calculated from the slopes of the linear regression of % parent remaining (ln) vs incubation time relationship: in vitro t1/2=0.693/k, where k=−[slope of linear regression of % parent remaining(ln) vs incubation time]. Data analysis was performed using Microsoft Excel Software.

[1] = Metabolic stability using human liver microsomes; type: in vitro ADME; conditions: for t1/2 ± SD, calculated half-life in human liver microsomes / half-life at 1 μM: 1.0 mg/mL human liver microsomes, 1 μM test compound, 2 mM NADPH, 37° C., triplicate; for half-life at 1 μM: pH 7.4, read-out: t1/2 ± SD, calculated half-life in human liver microsomes
Experimental: Human liver microsomes (20 mg/mL) were obtained from Xenotech, LLC (Lenexa, Kans.). β-nicotinamide adenine dinucleotide phosphate, reduced form (NADPH), magnesium chloride (MgCl2), and dimethyl sulfoxide (DMSO) were purchased from Sigma-Aldrich.
7.5 mM stock solutions of test compounds were prepared in DMSO. The 7.5 mM stock solutions were diluted to 50 μM in acetonitrile (ACN). The 20 mg/mL human liver microsomes were diluted to 1.25 mg/mL (1 mg/mL final) in 0.1 M potassium phosphate buffer, pH 7.4, containing 3 mM MgCl2. The diluted microsomes (375 μL) were added to wells of a 96-well polypropylene plate in triplicate. 10 μL of the 50 μM test compound was added to the microsomes and the mixture was pre-warmed for 10 minutes. Reactions were initiated by addition of 125 μL of pre-warmed NADPH solution. The final reaction volume was 0.5 mL and contained 1.0 mg/mL human liver microsomes, 1 μM test compound, and 2 mM NADPH in 0.1 M potassium phosphate buffer, pH 7.4, and 3 mM MgCl2. The reaction mixtures were incubated at 37° C., and 50 μL aliquots were removed at 0, 5, 10, 20, and 30 minutes and added to shallow 96-well plates which contained 50 μL of ice-cold ACN with internal standard to stop the reactions. The plates were stored at 4° C. for 20 minutes after which 100 μL of water was added to the wells of the plate before centrifugation to pellet precipitated proteins. Supernatants were transferred to another 96-well plate and analyzed for amounts of parent remaining by LC-MS/MS using an Applied Bio-systems API 4000 mass spectrometer.
7-ethoxy coumarin was used as a positive control.
The in vitro t1/2s for test compounds were calculated from the slopes of the linear regression of % parent remaining (ln) vs incubation time relationship:
in vitro t1/2=0.693/k, where k=−[slope of linear regression of % parent remaining(ln) vs incubation time]
Data Analysis was Performed Using Microsoft Excel Software.

CYP2D6 = molecular target: T2, CYP2D6 (Homo sapiens, UniProt P10635); test: Metabolic stability in CYP2D6 SUPERSOMES; type: in vitro ADME; conditions: human, recombinant human CYP2D6 SUPERSOMES, pH 7.4; 50 pmol/mL CYP2D6 SUPERSOMES, 1 μM test compound, 2 mM NADPH, 37° C., 0-30 minutes, triplicate; read-out: t1/2 ± SD, calculated half-life in SUPERSOMES
T2 construct: purchased GenTest (Woburn, Mass., USA)
Experimental: as §1, §2

[2] = healthy human males; cited from earlier work
[3] = Table 3, vs dextroethorphan or dextroisoproporphan

T2 sequence (P10635 whole entry): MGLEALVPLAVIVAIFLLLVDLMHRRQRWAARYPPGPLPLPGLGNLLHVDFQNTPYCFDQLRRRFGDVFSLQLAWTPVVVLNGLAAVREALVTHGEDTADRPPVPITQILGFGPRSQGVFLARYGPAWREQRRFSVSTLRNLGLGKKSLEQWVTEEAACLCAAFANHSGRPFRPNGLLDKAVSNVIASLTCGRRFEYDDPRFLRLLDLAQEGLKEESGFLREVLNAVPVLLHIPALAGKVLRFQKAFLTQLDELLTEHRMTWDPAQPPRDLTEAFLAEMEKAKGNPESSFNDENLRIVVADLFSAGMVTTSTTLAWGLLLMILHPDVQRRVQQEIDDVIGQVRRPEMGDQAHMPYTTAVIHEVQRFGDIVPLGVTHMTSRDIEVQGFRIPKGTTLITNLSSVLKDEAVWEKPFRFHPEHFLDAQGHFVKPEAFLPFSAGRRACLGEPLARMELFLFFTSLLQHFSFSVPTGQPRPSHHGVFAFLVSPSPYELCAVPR
T1 sequence (P10635 whole entry): as above

With `[2H]C([2H])([2H])N1CC[C@@]23CCCC[C@@H]2[C@@H]1Cc1ccc(OC([2H])([2H])C([2H])([2H])[2H])cc13` [Compound 100, (+)-3-(Ethoxy-d5)-17-(methyl-d3)-(9α,13α,14α)-morphinan hydrochloride] the “t1/2 ± SD, calculated half-life in SUPERSOMES” value (Human CYP2D6 SUPERSOMES) was 51.3 ± 3.7 min, the “t1/2 ± SD, calculated half-life in human liver microsomes” value ([1]; Table 3) was 59.2 ± 1.7 min and the “Change over non-deuterated compound (half-life)” value [1, 3] was 109%.

For `[2H]C([2H])([2H])N1CC[C@@]23CCCC[C@@H]2[C@@H]1Cc1ccc(OC([2H])(C([2H])([2H])[2H])C([2H])([2H])[2H])cc13` [Compound 102, (+)-3-(Isopropoxy-d7)-17-(methyl-d3)-(9α,13α,14α)-morphinan], the half-life at 1 μM (CYP2D6) was 39 ± 1.9 min, the “Change over non-deuterated compound (half-life)” value [1, 3] was 69% and the half-life at 1 μM ([1]; Table 3) was 61 ± 0.4 min.

For `[2H]C([2H])([2H])C([2H])([2H])Oc1ccc2c(c1)[C@]13CCCC[C@@H]1[C@H](C2)N(C)CC3` [Compound 104, (+)-3-(Ethoxy-d5)-17-methyl-(9α,13α,14α)-morphinan hydrochloride], the “t1/2 ± SD, calculated half-life in SUPERSOMES” value (Human CYP2D6 SUPERSOMES) was 49.1 ± 4.1 min, the “t1/2 ± SD, calculated half-life in human liver microsomes” value ([1]; Table 3) was 59.1 ± 2.2 min and the “Change over non-deuterated compound (half-life)” value [1, 3] was 109%.

For `[2H]C([2H])([2H])C([2H])(Oc1ccc2c(c1)[C@]13CCCC[C@@H]1[C@H](C2)N(C)CC3)C([2H])([2H])[2H]` [Compound 106, (+)-3-(Isopropoxy-d7)-17-methyl-(9α,13α,14α)-morphinan], the half-life at 1 μM (CYP2D6) was 36 ± 2.8 min, the “Change over non-deuterated compound (half-life)” value [1, 3] was 91% and the half-life at 1 μM ([1]; Table 3) was 68.8 ± 0.9 min.

With `[2H]C([2H])([2H])c1ccc2c(c1)[C@]13CCCC[C@@H]1[C@H](C2)N(C)CC3` [Compound 108, (+)-3-(Methyl-d3)-17-methyl-(9α,13α,14α)-morphinan] the “Change over non-deuterated compound (half-life)” value ([1]; Table 4, vs dimemorfan) was 21%.

For `[2H]C([2H])([2H])c1ccc2c(c1)[C@]13CCCC[C@@H]1[C@H](C2)N(C([2H])([2H])[2H])CC3` [Compound 110, (+)-3-(Methyl-d3)-17-(methyl-d3)-(9α,13α,14α)-morphinan], the “Change over non-deuterated compound (half-life)” value ([1]; Table 4, vs dimemorfan) was 37%.

In the case of `CCOc1ccc2c(c1)[C@@]13CCCC[C@H]1[C@@H](C2)N(C)CC3` [Dextroethorphan, (+)-3-ethoxy-17-methylmorphinan, reference compound], the “t1/2 ± SD, calculated half-life in SUPERSOMES” value (Human CYP2D6 SUPERSOMES) is reported as 10.3 ± 2.1 min and the “t1/2 ± SD, calculated half-life in human liver microsomes” value ([1]; Table 3) is reported as 28.3 ± 0.6 min.

`CC(C)Oc1ccc2c(c1)[C@@]13CCCC[C@H]1[C@@H](C2)N(C)CC3` [Dextroisoproporphan, (+)-3-(2-propoxy)-17-methyl-morphinan, reference compound] showed a half-life at 1 μM (CYP2D6) of 21.7 ± 1.6 min and a half-life at 1 μM ([1]; Table 3) of 36.1 ± 1.6 min.

For `COc1ccc2c(c1)[C@]13CCCC[C@@H]1[C@H](C2)N(C)CC3` [Dextromethorphan, (+)-3-methoxy-17-methyl-(9α,13α,14α)-morphinan, reference compound], the “t1/2 ± SD, calculated half-life in SUPERSOMES” value (Human CYP2D6 SUPERSOMES) was 1.7 ± 0.3 min.

For `Cc1ccc2c(c1)[C@]13CCCC[C@@H]1[C@H](C2)N(C)CC3` [Dimemorfan, (+)-(9α,13α,14α)-3,17-dimethylmorphinan], the “fraction of a dose metabolized” value [2] is given as “Greater than 98%”.

With `[2H]C([2H])([2H])Oc1ccc2c(c1)[C@]13CCCC[C@@H]1[C@H](C2)N(C([2H])([2H])[2H])CC3` [Test Compound, (+)-3-d3-methoxy-17-d3-methyl-(9α,13α,14α)-morphinan, reference compound] the “t1/2 ± SD, calculated half-life in SUPERSOMES” value (Human CYP2D6 SUPERSOMES) was 5.6 ± 1.5 min.
